We go through 14 molecules from patent US20250114345A1, “COMPOUNDS AND COMPOSITIONS AS CBP/P300 DEGRADERS AND USES THEREOF” (Oncopia Therapeutics, Inc. d/b/a/ SK Life Science Labs, priority 2023, published 2025).

Molecules are shown by their SMILES.

One test deals with T1, p300 (Homo sapiens, UniProt Q09472).
T1 construct: host or cells: A549 P300 HiBit cells
In words: P300 degradation, HiBit technology in A549 P300 HiBit cells (2 h). The conditions noted are these: 2 hrs post treatment; for Dmax: A549, A549 P300 HiBit cells; for DC50: A549 P300 HiBit cells. Type of test: cell-based. In a few lines:
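Cells: A549 HiBiT-tagged lines, 0.2×10^4/well, F-12K + 10% HI-FBS, equilibrated overnight. Tx: serial dilution of cpd (10 mM DMSO stock). Readout: HiBiT lytic reagent, 10 min RT shaking, luminescence → potency, Dmax.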
Background: The HiBiT peptide binds its large partner to form an active luciferase.

In another test the target is T2, CBP (Homo sapiens, UniProt Q92793).
T2 construct: host or cells: A549 CBP HiBit cells
In words: CBP degradation, HiBit technology in A549 CBP HiBit cells (24 h). The class given is cell-based. The conditions noted are these: 24 hrs post treatment. On the procedure:
p300 and CBP degradation potency and Dmax were determined using in cell western (ICW) assay technology in H1299 cells or HiBit technology in A549 HiBit cells.
A549 P300 HiBit and A549 CBP HiBit cells were plated in separate 384-well, TC treated, white-opaque, flat-bottomed microplate. Cells were plated at a cell density of 0.2×10^4 cells per well in assay media comprised of F-12K, 10% heat inactivated FBS, and 1% penicillin/streptomycin. Assay microplates containing HiBit cells were placed in a 37° C., 5% CO2, tissue culture incubator and left to equilibrate overnight. The next day cells were treated with serial dilutions of test compound made up of 10 mM stock solutions in DMSO. 384-Well plates containing treated cells were then placed back into a 37° C., 5% CO2, tissue culture incubator. Assay microplates containing A549 P300 HiBit cells were incubated for 2 hrs post treatment before P300 destruction was assessed, while microplates containing A549 CBP HiBit cells were incubated for 24 hrs post treatment before CBP destruction was determined. On the day of each assay time point, microplates were removed from the tissue culture incubator and prepared HiBit Lytic detection buffer (Promega, cat #N3O40) was added to each plate. Plates were covered with aluminum foil and incubated for ten minutes at room temperature on an orbital shaker. After incubation, luminescent signal of each plate was measured using the Envision instrument (Perkin Elmer).

T1 sequence (Q09472 whole entry): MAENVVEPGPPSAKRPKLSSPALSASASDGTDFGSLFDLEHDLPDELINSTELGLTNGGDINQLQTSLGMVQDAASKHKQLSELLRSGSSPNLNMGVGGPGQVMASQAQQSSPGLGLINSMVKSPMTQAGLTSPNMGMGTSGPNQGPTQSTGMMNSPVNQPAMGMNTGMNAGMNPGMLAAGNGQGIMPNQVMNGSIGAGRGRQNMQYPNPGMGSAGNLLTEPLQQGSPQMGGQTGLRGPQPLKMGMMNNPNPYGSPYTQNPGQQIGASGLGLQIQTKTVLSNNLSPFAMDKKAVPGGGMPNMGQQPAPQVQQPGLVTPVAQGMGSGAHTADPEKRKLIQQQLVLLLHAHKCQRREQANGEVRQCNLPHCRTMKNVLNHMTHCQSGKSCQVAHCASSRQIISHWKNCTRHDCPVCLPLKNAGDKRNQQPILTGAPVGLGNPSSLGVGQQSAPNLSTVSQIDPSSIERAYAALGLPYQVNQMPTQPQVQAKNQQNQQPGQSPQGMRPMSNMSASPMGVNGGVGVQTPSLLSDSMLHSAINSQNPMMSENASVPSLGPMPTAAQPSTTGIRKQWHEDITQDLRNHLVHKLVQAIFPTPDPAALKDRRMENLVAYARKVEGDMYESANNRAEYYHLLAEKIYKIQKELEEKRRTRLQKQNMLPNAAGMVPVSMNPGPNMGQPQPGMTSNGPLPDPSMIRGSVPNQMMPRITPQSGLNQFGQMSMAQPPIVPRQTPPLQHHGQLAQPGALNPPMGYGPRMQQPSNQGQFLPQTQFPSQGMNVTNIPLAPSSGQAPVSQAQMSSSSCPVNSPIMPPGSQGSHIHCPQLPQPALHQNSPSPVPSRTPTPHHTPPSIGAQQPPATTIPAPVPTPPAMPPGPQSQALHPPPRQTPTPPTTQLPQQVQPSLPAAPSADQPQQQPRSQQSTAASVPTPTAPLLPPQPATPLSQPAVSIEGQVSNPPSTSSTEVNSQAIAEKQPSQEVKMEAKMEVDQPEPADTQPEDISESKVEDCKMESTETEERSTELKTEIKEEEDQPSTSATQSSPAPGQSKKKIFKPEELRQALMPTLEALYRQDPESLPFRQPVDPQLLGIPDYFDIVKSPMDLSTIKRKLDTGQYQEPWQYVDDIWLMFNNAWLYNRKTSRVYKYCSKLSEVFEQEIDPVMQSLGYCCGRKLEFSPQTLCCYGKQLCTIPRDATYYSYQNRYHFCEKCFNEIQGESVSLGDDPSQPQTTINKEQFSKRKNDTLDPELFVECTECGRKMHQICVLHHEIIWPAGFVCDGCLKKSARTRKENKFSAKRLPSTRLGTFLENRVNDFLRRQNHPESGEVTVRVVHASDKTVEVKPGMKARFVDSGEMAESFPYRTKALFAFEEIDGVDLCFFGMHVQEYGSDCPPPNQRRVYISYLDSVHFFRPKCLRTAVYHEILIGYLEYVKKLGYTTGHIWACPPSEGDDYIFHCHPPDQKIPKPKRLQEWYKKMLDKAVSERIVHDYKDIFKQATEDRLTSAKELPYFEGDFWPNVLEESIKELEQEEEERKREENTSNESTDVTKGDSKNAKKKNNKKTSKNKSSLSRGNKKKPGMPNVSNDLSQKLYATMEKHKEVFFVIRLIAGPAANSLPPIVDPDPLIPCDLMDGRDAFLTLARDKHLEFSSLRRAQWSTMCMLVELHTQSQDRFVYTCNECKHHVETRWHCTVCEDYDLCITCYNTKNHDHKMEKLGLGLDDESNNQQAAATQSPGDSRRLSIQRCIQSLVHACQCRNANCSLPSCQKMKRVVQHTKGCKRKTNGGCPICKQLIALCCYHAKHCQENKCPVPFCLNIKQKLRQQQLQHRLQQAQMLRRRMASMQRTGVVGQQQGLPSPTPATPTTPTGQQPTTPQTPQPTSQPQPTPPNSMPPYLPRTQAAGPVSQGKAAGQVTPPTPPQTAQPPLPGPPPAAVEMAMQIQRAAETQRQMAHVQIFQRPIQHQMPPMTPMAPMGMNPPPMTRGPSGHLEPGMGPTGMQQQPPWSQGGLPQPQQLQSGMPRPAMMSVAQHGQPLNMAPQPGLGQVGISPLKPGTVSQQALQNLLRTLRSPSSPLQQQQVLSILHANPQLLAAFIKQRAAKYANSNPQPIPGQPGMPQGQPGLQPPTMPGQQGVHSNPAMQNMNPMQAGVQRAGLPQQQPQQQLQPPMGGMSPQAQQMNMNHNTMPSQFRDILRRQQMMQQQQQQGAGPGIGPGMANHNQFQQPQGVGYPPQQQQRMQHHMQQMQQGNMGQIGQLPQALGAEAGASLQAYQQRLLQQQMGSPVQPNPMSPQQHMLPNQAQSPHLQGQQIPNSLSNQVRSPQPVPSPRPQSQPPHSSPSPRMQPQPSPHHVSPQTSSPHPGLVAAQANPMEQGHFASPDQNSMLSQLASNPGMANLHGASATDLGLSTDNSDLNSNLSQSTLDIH
T2 sequence (Q92793 whole entry): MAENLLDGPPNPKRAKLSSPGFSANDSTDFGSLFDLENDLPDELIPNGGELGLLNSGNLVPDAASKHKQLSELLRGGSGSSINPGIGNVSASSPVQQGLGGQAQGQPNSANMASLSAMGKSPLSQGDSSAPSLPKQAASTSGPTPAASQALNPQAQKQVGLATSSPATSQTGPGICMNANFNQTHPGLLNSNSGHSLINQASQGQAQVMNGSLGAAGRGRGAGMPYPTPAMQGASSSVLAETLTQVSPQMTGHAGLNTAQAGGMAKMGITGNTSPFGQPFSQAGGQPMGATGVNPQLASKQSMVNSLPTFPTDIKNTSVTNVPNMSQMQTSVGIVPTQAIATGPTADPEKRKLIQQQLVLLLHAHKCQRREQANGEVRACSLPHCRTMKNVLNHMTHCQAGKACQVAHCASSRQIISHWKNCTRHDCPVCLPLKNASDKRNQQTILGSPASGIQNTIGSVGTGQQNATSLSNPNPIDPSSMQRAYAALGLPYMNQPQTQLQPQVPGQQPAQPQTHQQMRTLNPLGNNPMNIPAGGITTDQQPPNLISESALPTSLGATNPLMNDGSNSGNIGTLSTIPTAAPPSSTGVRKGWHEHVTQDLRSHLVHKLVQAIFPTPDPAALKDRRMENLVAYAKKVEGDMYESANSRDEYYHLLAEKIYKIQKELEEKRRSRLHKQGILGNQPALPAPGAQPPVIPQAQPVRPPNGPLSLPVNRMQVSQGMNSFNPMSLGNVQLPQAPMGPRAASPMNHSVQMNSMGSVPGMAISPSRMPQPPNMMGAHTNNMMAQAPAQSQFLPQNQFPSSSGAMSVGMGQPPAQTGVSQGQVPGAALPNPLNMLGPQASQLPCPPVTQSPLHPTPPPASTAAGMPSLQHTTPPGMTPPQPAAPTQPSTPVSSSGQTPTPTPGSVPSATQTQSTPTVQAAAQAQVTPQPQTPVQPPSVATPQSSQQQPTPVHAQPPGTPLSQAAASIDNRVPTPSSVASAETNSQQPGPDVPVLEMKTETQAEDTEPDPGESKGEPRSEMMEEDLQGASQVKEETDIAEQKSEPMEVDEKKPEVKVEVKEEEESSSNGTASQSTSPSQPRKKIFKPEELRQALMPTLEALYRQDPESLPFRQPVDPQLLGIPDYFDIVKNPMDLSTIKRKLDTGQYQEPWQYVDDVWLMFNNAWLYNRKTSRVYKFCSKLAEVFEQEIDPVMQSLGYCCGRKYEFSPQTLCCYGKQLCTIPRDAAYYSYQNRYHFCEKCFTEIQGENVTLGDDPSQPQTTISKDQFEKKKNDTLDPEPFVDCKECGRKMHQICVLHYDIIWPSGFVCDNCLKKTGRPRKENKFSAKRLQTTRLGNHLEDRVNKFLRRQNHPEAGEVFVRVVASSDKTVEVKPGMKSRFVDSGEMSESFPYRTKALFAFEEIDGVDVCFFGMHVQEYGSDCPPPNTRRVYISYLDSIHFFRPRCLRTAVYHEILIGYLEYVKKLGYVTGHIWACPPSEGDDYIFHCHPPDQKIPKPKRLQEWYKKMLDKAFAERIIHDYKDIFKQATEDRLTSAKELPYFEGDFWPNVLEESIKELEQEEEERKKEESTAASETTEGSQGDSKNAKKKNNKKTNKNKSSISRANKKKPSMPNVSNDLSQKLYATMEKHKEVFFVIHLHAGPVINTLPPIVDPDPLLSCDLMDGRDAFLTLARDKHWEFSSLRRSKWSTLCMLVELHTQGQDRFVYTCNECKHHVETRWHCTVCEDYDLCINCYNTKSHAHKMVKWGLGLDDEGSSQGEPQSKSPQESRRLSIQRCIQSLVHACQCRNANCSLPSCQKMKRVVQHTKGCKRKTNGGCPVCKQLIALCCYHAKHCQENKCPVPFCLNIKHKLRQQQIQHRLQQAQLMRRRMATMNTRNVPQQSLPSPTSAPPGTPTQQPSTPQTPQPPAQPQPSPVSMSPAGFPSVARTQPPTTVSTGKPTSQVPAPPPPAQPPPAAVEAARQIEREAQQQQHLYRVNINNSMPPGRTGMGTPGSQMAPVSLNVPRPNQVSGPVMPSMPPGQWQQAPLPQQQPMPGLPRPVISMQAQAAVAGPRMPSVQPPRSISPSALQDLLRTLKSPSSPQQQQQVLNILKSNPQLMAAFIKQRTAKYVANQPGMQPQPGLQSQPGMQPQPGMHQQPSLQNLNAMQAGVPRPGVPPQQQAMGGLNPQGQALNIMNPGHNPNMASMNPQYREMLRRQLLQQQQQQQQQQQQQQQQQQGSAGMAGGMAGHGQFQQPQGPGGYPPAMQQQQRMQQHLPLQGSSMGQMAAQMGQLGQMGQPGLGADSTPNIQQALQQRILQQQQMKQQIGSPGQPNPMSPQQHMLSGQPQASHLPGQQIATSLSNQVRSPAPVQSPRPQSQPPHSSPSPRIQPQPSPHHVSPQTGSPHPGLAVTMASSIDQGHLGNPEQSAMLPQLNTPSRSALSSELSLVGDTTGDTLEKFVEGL

At p300, `CC(C)c1cc(-c2cccc3cc(-c4ccc(C(=O)NCC#Cc5ccc6cnn(C7CCC(=O)NC7=O)c6c5Cl)nc4)ncc23)cc2c1n(C)c(=O)n2C` (centres unmarked) [Example A39, N-(3-(7-Chloro-1-(2,6-dioxopiperidin-3-yl)-1H-indazol-6-yl)prop-2-yn-1-yl)-5-(8-(7-isopropyl-1,3-dimethyl-2-oxo-2,3-dihydro-1H-benzo[d]imidazol-5-yl)isoquinolin-3-yl)picolinamide] registered a Dmax above 80% and a DC50 of 1 to 9.9 nM. Besides, at CBP, the DC50 lay within 100 to 999 nM and the Dmax lay within 20 to 39%.
With `Cc1cc(-c2ccc(N(C)c3cc(C4CCOCC4)c4c(c3)n(C)c(=O)n4C)cn2)cnc1C(=O)NCC#Cc1cccc(NC2CCC(=O)NC2=O)c1` (centres unmarked) [Example A45, 5-((1,3-dimethyl-2-oxo-7-(tetrahydro-2H-pyran-4-yl)-2,3-dihydro-1H-benzo[d]imidazol-5-yl) (methyl)amino)-N-(3-(3-((2,6-dioxopiperidin-3-yl)amino)phenyl)prop-2-yn-1-yl)-5′-methyl-[2,3′-bipyridine]-6′-carboxamide], on p300, the Dmax was above 80% and the DC50 lay within 1 to 9.9 nM. At CBP, the DC50 was above 1000 nM and the Dmax was below 20%.
For the molecule `Cc1cc(-c2ncc(N(C)c3cc(C(C)C)c4c(c3)n(C)c(=O)n4C)cn2)cnc1C(=O)NCC#Cc1cccc(NC2CCC(=O)NC2=O)c1` (centres unmarked) [Example A51, N-(3-(3-((2,6-dioxopiperidin-3-yl)amino)phenyl)prop-2-yn-1-yl)-5-(5-((7-isopropyl-1,3-dimethyl-2-oxo-2,3-dihydro-1H-benzo [d]imidazol-5-yl)(methyl)amino)pyrimidin-2-yl)-3-methylpicolinamide], on p300, the Dmax was above 80% and the DC50 was in the range of 1 to 9.9 nM. Further, on CBP, the DC50 was above 1000 nM and the Dmax is below 20%.
On to `Cc1cc(-c2ncc(N(C)c3cc(C4CCOCC4)c4c(c3)n(C)c(=O)n4C)cn2)cnc1C(=O)NCC#Cc1ccc2occ(C3CCC(=O)NC3=O)c2c1` (centres unmarked) [Example A53, 5-(5-((1,3-dimethyl-2-oxo-7-(tetrahydro-2H-pyran-4-yl)-2,3-dihydro-1H-benzo[d]imidazol-5-yl)(methyl)amino)pyrimidin-2-yl)-N-(3-(3-(2,6-dioxo-piperidin-3-yl)benzofuran-5-yl)prop-2-yn-1-yl)-3-methylpicolinamide], for which, at p300, the Dmax is above 80% and the 50% degradation concentration (DC50) is below 1 nM. At CBP, the 50% degradation concentration (DC50) was above 1000 nM and the Dmax is below 20%.
For `Cc1cc(-c2ncc(N(C)c3cc(C4CCOCC4)c4c(c3)n(C)c(=O)n4C)cn2)cnc1C(=O)NCC#Cc1ccc2occ([C@H]3CCC(=O)NC3=O)c2c1` [Example A54, (R)-5-(5-((1,3-dimethyl-2-oxo-7-(tetrahydro-2H-pyran-4-yl)-2,3-dihydro-1H-benzo[d]imidazol-5-yl)(methyl)amino)pyrimidin-2-yl)-N-(3-(3-(2,6-dioxopiperidin-3-yl)benzofuran-5-yl)prop-2-yn-1-yl)-3-methylpicolinamide], in that order: above 80%, 1 to 9.9 nM, above 1000 nM and below 20%.
At p300, `Cc1cc(-c2ncc(N(C)c3cc(C4CCOCC4)c4c(c3)n(C)c(=O)n4C)cn2)cnc1C(=O)NCC#Cc1ccc2occ([C@@H]3CCC(=O)NC3=O)c2c1` [Example A55, (S)-5-(5-((1,3-dimethyl-2-oxo-7-(tetrahydro-2H-pyran-4-yl)-2,3-dihydro-1H-benzo[d]imidazol-5-yl)(methyl)amino)pyrimidin-2-yl)-N-(3-(3-(2,6-dioxo-piperidin-3-yl)benzofuran-5-yl)prop-2-yn-1-yl)-3-methylpicolinamide] displayed a maximal degradation (Dmax) above 80% and a DC50 of 1 to 9.9 nM. Further, on CBP, the DC50 is above 1000 nM and the Dmax is below 20%.
On p300, `CC(C)c1cc(C2=CC(C)(C)Oc3cc(-c4ccc(C(=O)NCC#Cc5ccc6occ(C7CCC(=O)NC7=O)c6c5)nc4)c(F)cc32)cc2c1n(C)c(=O)n2C` (centres unmarked) [Example A57, N-(3-(3-(2,6-dioxopiperidin-3-yl)benzofuran-5-yl)prop-2-yn-1-yl)-5-(6-fluoro-4-(7-isopropyl-1,3-dimethyl-2-oxo-2,3-dihydro-1H-benzo[d]imidazol-5-yl)-2,2-dimethyl-2H-chromen-7-yl)picolinamide] showed a Dmax above 80% and a DC50 of 10 to 99 nM. On CBP, this molecule displayed a DC50 above 1000 nM and a Dmax below 20%.
On p300, `CC(C)c1cc(N2CCOc3cc(-c4ccc(C(=O)NCC#Cc5ccc6occ(C7CCC(=O)NC7=O)c6c5)nc4)ncc32)cc2c1n(C)c(=O)n2C` (centres unmarked) [Example A58, N-(3-(3-(2,6-dioxopiperidin-3-yl)benzofuran-5-yl)prop-2-yn-1-yl)-5-(4-(7-isopropyl-1,3-dimethyl-2-oxo-2,3-dihydro-1H-benzo[d]imidazol-5-yl)-3,4-dihydro-2H-pyrido[4,3-b][1,4]oxazin-7-yl)picolinamide] yielded a Dmax above 80% and a DC50 of 1 to 9.9 nM. For the same molecule, on CBP, the DC50 was above 1000 nM and the Dmax was below 20%.
Regarding `Cc1cc(-c2cc3cccc(-c4ccc5c(c4)n(C)c(=O)n5C)c3cn2)cnc1C(=O)NCC#Cc1ccc2occ([C@@H]3CCC(=O)NC3=O)c2c1` [Example A61, (S)-5-(8-(1,3-dimethyl-2-oxo-2,3-dihydro-1H-benzo[d]imidazol-5-yl)isoquinolin-3-yl)-N-(3-(3-(2,6-dioxo-piperidin-3-yl)benzofuran-5-yl)prop-2-yn-1-yl)-3-methylpicolinamide], the values for the maximal degradation (Dmax) on p300 and at CBP were above 80% and below 20%, respectively. In addition, the DC50 is 1 to 9.9 nM on p300 and above 1000 nM at CBP.
On to `Cc1c(-c2ccc(C(=O)NCC#Cc3ccc4occ(C5CCC(=O)NC5=O)c4c3)nc2)ncc2c(-c3ccc4c(c3)n(C)c(=O)n4C)cccc12` (centres unmarked) [Example A63, 5-(8-(1,3-dimethyl-2-oxo-2,3-dihydro-1H-benzo[d]imidazol-5-yl)-4-methylisoquinolin-3-yl)-N-(3-(3-(2,6-dioxo-piperidin-3-yl)benzofuran-5-yl)prop-2-yn-1-yl)picolinamide], for which the Dmax at p300 was above 80%; on CBP, below 20%. The DC50 is below 1 nM at p300 and 100 to 999 nM on CBP.
The corresponding values for `Cn1c(=O)n(C)c2c(F)cc(-c3cccc4cc(-c5ccc(C(=O)NCC#Cc6ccc7occ(C8CCC(=O)NC8=O)c7c6)nc5)ncc34)cc21` (centres unmarked) [Example A64, N-(3-(3-(2,6-dioxopiperidin-3-yl)benzofuran-5-yl)prop-2-yn-1-yl)-5-(8-(7-fluoro-1,3-dimethyl-2-oxo-2,3-dihydro-1H-benzo[d]imidazol-5-yl)isoquinolin-3-yl)picolinamide] are above 80%, below 20%, 1 to 9.9 nM and above 1000 nM.
Consider `Cc1cc(-c2cc3cccc(-c4cc(F)c5c(c4)n(C)c(=O)n5C)c3cn2)cnc1C(=O)NCC#Cc1ccc2occ(C3CCC(=O)NC3=O)c2c1` (centres unmarked) [Example A66, N-(3-(3-(2,6-dioxopiperidin-3-yl)benzofuran-5-yl)prop-2-yn-1-yl)-5-(8-(7-fluoro-1,3-dimethyl-2-oxo-2,3-dihydro-1H-benzo[d]imidazol-5-yl)isoquinolin-3-yl)-3-methylpicolinamide], for which the results for the Dmax at p300 and at CBP were above 80% and below 20%, respectively. The DC50 was 1 to 9.9 nM on p300 and above 1000 nM on CBP.
`Cc1cc(N2CCOc3nc(-c4ccc(C(=O)NCC#Cc5ccc6occ(C7CCC(=O)NC7=O)c6c5)nc4)ncc32)cc2c1n(C)c(=O)n2C` (centres unmarked) [Example A68, N-(3-(3-(2,6-dioxopiperidin-3-yl)benzofuran-5-yl)prop-2-yn-1-yl)-5-(5-(1,3,7-trimethyl-2-oxo-2,3-dihydro-1H-benzo[d]imidazol-5-yl)-6,7-dihydro-5H-pyrimido [4,5-b][1,4]oxazin-2-yl)picolinamide]: at p300, the Dmax is above 80% and the DC50 lay in the range of 1 to 9.9 nM. In addition, on CBP, the 50% degradation concentration (DC50) was above 1000 nM and the Dmax was below 20%.
At p300, `Cc1cc(-c2cc3cccc(-c4cc5c(c(N6CC7CCC(C6)O7)n4)n(C)c(=O)n5C)c3cn2)cnc1C(=O)NCC#Cc1ccc2occ(C3CCC(=O)NC3=O)c2c1` (centres unmarked) [Example A69, 5-(8-(4-(8-oxa-3-azabicyclo [3.2.1]octan-3-yl)-1,3-dimethyl-2-oxo-2,3-dihydro-1H-imidazo[4,5-c]pyridin-6-yl)isoquinolin-3-yl)-N-(3-(3-(2,6-dioxo-piperidin-3-yl)benzofuran-5-yl)prop-2-yn-1-yl)-3-methylpicolinamide] gave a Dmax above 80% and a DC50 of 1 to 9.9 nM. In addition, at CBP, the DC50 was above 1000 nM and the Dmax is below 20%.

In general, Dmax refers to the largest share of the target that was removed. As usually defined, the DC50 is the concentration at which degradation of the target reaches its halfway point. A lower DC50 goes with a more potent degrader.
